Experiments:
[1] = tested on: intestinal tissue of radiation-induced mucositis mice; assay: Cell proliferation (bromodeoxyuridine) by IHC staining of intestinal tissue; assay type: in vivo; conditions: 30 mg/kg NecroX-7, unlike a control, FIG. 4
Protocol: Cell proliferation (bromodeoxyuridine) was confirmed by IHC staining. Before obtaining mouse tissues, mice were each injected with […] of a BrDU labeling reagent (5-bromo-2′-deoxyuridine and 5-fluoro-2′-deoxyuridine) and intestinal tissue was extracted within 2 hours to prepare paraffin blocks. 4 μm continuous sections were obtained from paraffin-embedded tissue, treated with xylene three times to remove paraffin, and then rinsed stepwise in 95%, 90% and 70% ethanol. After removing endogenous peroxidase from 0.3% hydrogen peroxide, the sections were treated with goat serum for 30 minutes. A primary antibody was diluted in PBS containing 3% BSA according to the manufacturer's instructions and then maintained for 1 hour to induce a reaction therebetween. […] The cells were maintained in 3 μg/ml HRP streptoavidin for 30 minutes, developed color with DAB and hydrogen peroxide, and then were subjected to contrast staining with Mayer's hematoxylin or 1% methyl green.

[2] = tested on: tongue and intestinal tissues of anticancer drug-induced mucositis mice; assay: H&E staining of tongue and intestinal tissues, 5-FU-induced mucositis; assay type: in vivo
[3] = tested on: necrocytosis caused by oxidative stress and acetaminophen; conditions: reported, Park et al. 2013; cited from earlier work
Human tumor cells = assay: MTS viability of human tumor cells, NecroX-7 with or without 5-FU; assay type: cell-based; conditions: 5, 10, 20, 40 μM for 30 minutes; media without 5-FU; after 3 days; FIG. 10
Protocol: Human tumor cells were treated with NecroX-7 at each concentration ((5 μM, 10 μM, 20 μM, and 40 μM) for 30 minutes, the media were replaced by media with or without 5-FU, which is a chemotherapeutic agent, the cells were loaded on a 96-well plate and, after 3 days, the viability of the cells was measured by MTS assay.

[4] = tested on: anticancer drug-induced mucositis mouse model; assay: Anticancer drug (5-FU)-induced mucositis mouse model: viability, body weight; assay type: in vivo, C57BL/6(H-2k) mice; conditions: 50 mg/kg 5-FU i.p. five times; NecroX-7 intravenously five times at 0.3, 3 or 30 mg/kg; compared to group not treated; FIG. 7
Protocol: 7 week- to 9 week-old C57BL/6(H-2k) mice were used as an animal model, and injected intraperitoneally with 50 mg/kg of 5-fluorouracil (5-FU) every day for 5 days to induce oral and intestinal mucosal damage, thereby completing the establishment of a mucositis model. Effects of NecroX-7 administered on such a mucositis model were analyzed by comparison in terms of viability, body weight, and intestinal functions.
To induce oral and intestinal mucositis, the C57BL/6(H-2k) mice were intraperitoneally injected with 50 mg/kg of 5-FU five times. NecroX-7 was administered intravenously five times at a dose of 0.3 mg/kg or 3 mg/kg or 30 mg/kg and the results were compared.

[5] = tested on: mitochondrial ROS in intestinal epithelial cells (IEC-6); assay: Mitochondrial ROS by CM-H2ROS staining after radiation; assay type: cell-based; conditions: IEC-6 cells after radiation; FIG. 6
[6] = tested on: intestinal tissue of radiation-induced mucositis mice; assay: H&E staining of intestinal tissue, radiation-induced mucositis; assay type: in vivo; conditions: 30 mg/kg NecroX-7, FIG. 3
[7] = tested on: intestinal epithelial cells (IEC-6); assay: MTS assay of IEC-6 cell proliferation in normal environments; assay type: cell-based; conditions: no radiation, 5, 10, 20, 40 μM for 30 minutes, measured after 2 days
Protocol: To examine an effect of NecroX-7 on IEC-6 cell proliferation ability in normal environments, IEC-6 cells were treated with NecroX-7 at each concentration (5 μM, 10 μM, 20 μM, and 40 μM) for 30 minutes, the media were replaced and, after 2 days, the viability of the IEC-6 cells was measured by MTS (3-(4,5-dimethylthiazol-2-yl)-5-(3-carboxymethoxyphenyl)-2-(4-sulfophenyl)-2H-tetrazolium) assay.

[8] = tested on: radiation-induced mucositis mouse model; assay: Radiation-induced mucositis mouse model: viability, body weight, intestinal functions; assay type: in vivo, C57BL/6(H-2k) mice; conditions: 1100 cGy radiation, compared to group not treated
Protocol: NecroX-7 ((tetrahydropyran-4-yl)-[2-phenyl-5-(1,1-dioxo-thiomorpholine-4-yl)methyl-1H-indole-7-yl]amine) was obtained from LG Life Sciences, Ltd. 7 week- to 9 week-old C57BL/6(H-2k) mice were used as an animal model, and irradiated with 1,100 cGy whole-body radiation to induce damage to the intestinal mucosa, thereby completing the establishment of a mucositis model. Effects of NecroX-7 administered on such a mucositis model were analyzed by comparison in terms of viability, body weight, and intestinal functions.
(A) C57BL/6(H-2k) mice were irradiated with strong radiation 1100 cGy (radiation source: X-ray Mevatron MXE-2) at a dose rate of 1 Gy/min to induce mucositis. NecroX-7 was administered five times at a dose of 0.3 mg/kg or 3 mg/kg or 30 mg/kg and the results were compared.
Induction of intestinal mucositis by radiation causes side effects such as intestinal hemorrhaging and fecal incontinence. Thus, in the present experiment, a mucositis model was established by irradiating high-dose radiation of 1100 cGy, and NecroX-7 was treated total five times and the NecroX-7 treated group was compared to a group not treated with NecroX-7. A protective effect of NecroX-7 with respect to radiation-induced intestinal mucositis was examined.

[9] = tested on: liver injury due to ischemic reperfusion; conditions: reported, Park et al. 2013; cited from earlier work
[10] = tested on: intestinal epithelial cells (IEC-6); assay: MTS assay of IEC-6 cells after irradiation; assay type: cell-based; conditions: 20 μM and 40 μM NecroX-7 for 30 minutes; 2 days after radiation irradiation; FIG. 6
Protocol: To investigate an effect of NecroX-7 on cell proliferation ability after irradiation, the IEC-6 cells were treated with NecroX-7, for 30 minutes, according to concentration, the media were replaced, and then MTS assay was performed thereon 2 days after radiation irradiation.

tumor cells = assay: MTT assay of irradiated tumor cells; assay type: cell-based; conditions: 800 cGy radiation; NecroX-7 according to doses; 3 days incubation; FIG. 5
Protocol: (§1) Mucositis is a general side effect caused by radiation or chemotherapy for tumor treatment. Thus, to confirm the efficacy of a mucositis therapeutic agent, an effect thereof on tumor proliferation should be evaluated. Normal cells and tumor cells were irradiated with 800 cGy radiation, treated with NecroX-7 according to doses, and inoculated on a 96-well plate, incubated at 37[…] and 5% CO2 for 3 days, and then cell proliferation was confirmed by MTT assay. After incubation for 3 days, an MTT solution was added thereto and a reaction was allowed to occur therein for 3 hours, and the absorbance thereof was measured at […].

normal cells = assay: MTT assay of irradiated normal cells; assay type: cell-based; conditions: 800 cGy radiation; NecroX-7 according to doses; 3 days incubation; FIG. 5
Protocol: as §1

[11] = tested on: liver injury caused by carbon tetrachloride; conditions: mouse model; reported, Park et al. 2013; cited from earlier work
[12] = NecroX-7 five times at 0.3, 3 or 30 mg/kg, FIG. 1

Which results are given for `O=S1(=O)CCN(Cc2cc(NC3CCOCC3)c3[nH]c(-c4ccccc4)cc3c2)CC1` [NecroX-7, (tetrahydropyran-4-yl)-[2-phenyl-5-(1,1-dioxo-thiomorpholine-4-yl)methyl-1H-indole-7-yl]amine]?
cell proliferation (bromodeoxyuridine) in intestinal tissue [1]: vigorous cell proliferation was observed; H&E histology of tongue and oral mucosa (epidermal atrophy, infiltration of inflammatory and necrotic cells) ([2]; 30 mg/kg of NecroX-7, FIG. 8): aspects similar to normal tissues; H&E histology of intestinal tissue (villi and mucosal destruction) ([2]; NecroX-7-treated group, FIG. 9): aspects similar to normal tongue and intestinal tissues; protection against necrocytosis caused by oxidative stress and acetaminophen [3]: protective effect against necrocytosis caused by oxidative stress and acetaminophen; viability of human tumor cells (MTS), NecroX-7 alone (Human tumor cells): anticancer effect in a concentration-dependent manner; body weight loss [4]: suppressed body weight loss; viability [4]: increased viability; mitochondrial ROS (CM-H2ROS staining) [5]: significantly suppressed mitochondrial ROS increased by radiation; H&E histology of intestinal tissue (villi and mucosal destruction) [6]: aspects similar to normal intestinal tissue; effect on IEC-6 cell proliferation (MTS viability) [7]: nearly no effect on cell proliferation; body weight loss [8, 12]: inhibited body weight loss; viability [8, 12]: increased viability; intestinal function protection (length of the intestines, stool production) ([8]; NecroX-7 total five times, FIG. 2): protected, similar to the intestines of a normal group; inhibition of liver injury due to ischemic reperfusion [9]: effectively inhibits liver injury due to ischemic reperfusion; number of live IEC-6 cells (MTS) [10]: significantly increased; proliferation of tumor cells (MTT) (tumor cells): suppressed or decreased in most cancer cell lines; radiation-induced cell death in normal cells (MTT) (normal cells): radiation-induced cell death was prevented; prevention of liver injury caused by carbon tetrachloride [11]: effect of preventing liver injury caused by carbon tetrachloride in a mouse model

From patent publication US10272092B2, “Composition for preventing or treating mucositis comprising NecroX as effective ingredient” (THE CATHOLIC UNIVERSITY OF KOREA INDUSTRY-ACADEMIC …, priority 2014, dated 2019)
